# “And” between values parts separate entries of the source, which are not always exact repeats. Identical values can stand only once.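 Interpolation was linear, between the two tested concentrations surrounding the appropriate level; five concentrations were tested over 48 hours in 96-well plates. GI50: concentration for 50% inhibition of growth. TGI marks complete inhibition of growth.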
# Assays:
# Experiment in all cases: NCI anticancer screen, dose series, 48 h
# MDA-MB-435 = tested on: MDA-MB-435
# MDA-MB-231 breast = tested on: MDA-MB-231 breast
# T-47D breast = tested on: T-47D breast
# TK-10 renal = tested on: TK-10 renal
# HT29 colon = tested on: HT29 colon
# SF-268 CNS = tested on: SF-268 CNS
# OVCAR-5 ovarian = tested on: OVCAR-5 ovarian
# SNB-19 CNS = tested on: SNB-19 CNS
# NCI-H23 lung = tested on: NCI-H23 lung
# BT-549 breast = tested on: BT-549 breast
# MCF7 breast = tested on: MCF7 breast
# PC-3 prostate = tested on: PC-3 prostate
# NCI-H460 lung = tested on: NCI-H460 lung
# SK-MEL-28 melanoma = tested on: SK-MEL-28 melanoma
# 786-0 renal = tested on: 786-0 renal
# UACC-257 melanoma = tested on: UACC-257 melanoma
# HCC-2998 colon = tested on: HCC-2998 colon
# RPMI-8226 leukemia = tested on: RPMI-8226 leukemia
# OVCAR-8 ovarian = tested on: OVCAR-8 ovarian
# U251 CNS = tested on: U251 CNS
# SNB-75 CNS = tested on: SNB-75 CNS
# HOP-62 NSCLC = tested on: HOP-62 NSCLC
# KM12 colon = tested on: KM12 colon
# UACC-62 melanoma = tested on: UACC-62 melanoma
# MOLT-4 leukemia = tested on: MOLT-4 leukemia
# CAKI-1 renal = tested on: CAKI-1 renal
# K-562 leukemia = tested on: K-562 leukemia
# MALME-3M melanoma = tested on: MALME-3M melanoma
# HCT-15 colon = tested on: HCT-15 colon
# ACHN renal = tested on: ACHN renal
# SR leukemia = tested on: SR leukemia
# SK-OV-3 ovarian = tested on: SK-OV-3 ovarian
# DU-145 prostate = tested on: DU-145 prostate
# NCI/ADR-RES ovarian = tested on: NCI/ADR-RES ovarian
# COLO 205 colon = tested on: COLO 205 colon
# HS 578T breast = tested on: HS 578T breast
# SK-MEL-5 melanoma = tested on: SK-MEL-5 melanoma
# RXF 393 renal = tested on: RXF 393 renal
# EKVX NSCLC = tested on: EKVX NSCLC
# SF-295 CNS = tested on: SF-295 CNS
# SN12C renal = tested on: SN12C renal
# UO-31 renal = tested on: UO-31 renal
# M14 melanoma = tested on: M14 melanoma
# HL-60(TB) leukemia = tested on: HL-60(TB) leukemia
# LOX IMVI melanoma = tested on: LOX IMVI melanoma
# NCI-H226 lung = tested on: NCI-H226 lung
# NCI-H522 lung = tested on: NCI-H522 lung
# IGROV1 ovarian = tested on: IGROV1 ovarian
# HCT-116 colon = tested on: HCT-116 colon
# A498 renal = tested on: A498 renal
# SK-MEL-2 melanoma = tested on: SK-MEL-2 melanoma
# OVCAR-4 ovarian = tested on: OVCAR-4 ovarian
# OVCAR-3 ovarian = tested on: OVCAR-3 ovarian
# CCRF-CEM leukemia = tested on: CCRF-CEM leukemia
# A549 NSCLC = tested on: A549 NSCLC
# SF-539 CNS = tested on: SF-539 CNS
# HOP-92 NSCLC = tested on: HOP-92 NSCLC
# SW-620 colon = tested on: SW-620 colon
compound,measurement,setting,value
NC1(c2ccc(-c3nc4ccn5c(=O)[nH]nc5c4cc3-c3ccccc3)cc2)CCC1,GI50,MDA-MB-435,5.47 µM and > 10 µM and 10.8 µM
same,TGI,MDA-MB-435,21.8 µM and > 10 µM and 23 µM
same,GI50,MDA-MB-231 breast,10.7 µM and > 10 µM and 13.5 µM
same,TGI,MDA-MB-231 breast,23.8 µM and > 10 µM and 26.7 µM
same,GI50,T-47D breast,0.0198 µM and 0.0234 µM and 0.0639 µM
same,GI50,TK-10 renal,0.506 µM and 0.477 µM and 0.908 µM
same,TGI,TK-10 renal,21.2 µM and > 10 µM and 18.4 µM
same,GI50,HT29 colon,1.5 µM and 2.34 µM and 3.02 µM
same,TGI,HT29 colon,9.7 µM and > 10 µM and 24.6 µM
same,GI50,SF-268 CNS,12.2 µM and > 10 µM and 12.3 µM
same,TGI,SF-268 CNS,26.4 µM and > 10 µM and 27 µM
same,GI50,OVCAR-5 ovarian,11.6 µM and > 10 µM and 12.6 µM
same,TGI,OVCAR-5 ovarian,24.7 µM and > 10 µM and 25.7 µM
same,GI50,SNB-19 CNS,2.64 µM and 3.84 µM and 5.83 µM
same,TGI,SNB-19 CNS,15.6 µM and > 10 µM and 20.2 µM
same,GI50,NCI-H23 lung,13.1 µM and > 10 µM and 13.2 µM
same,TGI,NCI-H23 lung,28.3 µM and > 10 µM and 27.2 µM
same,GI50,BT-549 breast,0.462 µM and 0.621 µM and 1.57 µM
same,TGI,BT-549 breast,13.6 µM and > 10 µM and 16 µM
same,TGI,MCF7 breast,6.37 µM and > 10 µM and 17.5 µM
same,GI50,PC-3 prostate,0.0523 µM and 0.135 µM and 0.141 µM
same,TGI,PC-3 prostate,17 µM and > 10 µM and 17.3 µM
same,GI50,NCI-H460 lung,0.231 µM and 0.679 µM and 1.19 µM
same,TGI,NCI-H460 lung,17.7 µM and > 10 µM and 18.5 µM
same,GI50,SK-MEL-28 melanoma,1.27 µM and > 10 µM and 7.49 µM
same,TGI,SK-MEL-28 melanoma,5.37 µM and > 10 µM and 21.6 µM
same,GI50,786-0 renal,0.816 µM and 0.697 µM and 1.15 µM
same,TGI,786-0 renal,11.9 µM and > 9.66 µM and 14.7 µM
same,GI50,UACC-257 melanoma,1.54 µM and > 10 µM and 12.7 µM
same,TGI,UACC-257 melanoma,5.42 µM and > 10 µM and 26.8 µM
same,GI50,HCC-2998 colon,3.35 µM and > 6.01 µM and 3.61 µM
same,TGI,HCC-2998 colon,18.6 µM and > 10 µM and 19.7 µM
same,GI50,RPMI-8226 leukemia,7 µM and > 8.21 µM and 6.27 µM
same,TGI,RPMI-8226 leukemia,23.2 µM and > 10 µM and 28.4 µM
same,GI50,OVCAR-8 ovarian,12.6 µM and > 10 µM and 14.9 µM
same,TGI,OVCAR-8 ovarian,28.2 µM and > 10 µM and 30.8 µM
same,GI50,U251 CNS,2.34 µM and 2.68 µM and 3.65 µM
same,TGI,U251 CNS,14.7 µM and > 10 µM and 20 µM
same,GI50,SNB-75 CNS,0.051 µM and 0.105 µM and 0.12 µM
same,TGI,SNB-75 CNS,3.35 µM and 2.62 µM and 4.53 µM
same,GI50,HOP-62 NSCLC,3.84 µM and > 10 µM and 10.7 µM
same,TGI,HOP-62 NSCLC,15.9 µM and > 10 µM and 26.2 µM
same,GI50,KM12 colon,6.86 µM and > 8.08 µM and 12.2 µM
same,TGI,KM12 colon,20.8 µM and > 10 µM and 25.8 µM
same,GI50,UACC-62 melanoma,0.255 µM and 0.804 µM and 0.811 µM
same,TGI,UACC-62 melanoma,15.3 µM and > 10 µM and 18 µM
same,GI50,MOLT-4 leukemia,0.353 µM and 0.531 µM and 0.313 µM
same,TGI,MOLT-4 leukemia,14.1 µM and > 10 µM and 10.9 µM
same,GI50,CAKI-1 renal,5.01 µM and > 2.69 µM and 4.86 µM
same,TGI,CAKI-1 renal,20 µM and > 10 µM and 20.7 µM
same,GI50,K-562 leukemia,5.43 µM and > 5.59 µM and 9.99 µM
same,TGI,K-562 leukemia,18.2 µM and > 10 µM and 29.1 µM
same,TGI,MALME-3M melanoma,3 µM and > 10 µM and 24.3 µM
same,GI50,HCT-15 colon,2.92 µM and > 6.16 µM and 10.4 µM
same,TGI,HCT-15 colon,17.5 µM and > 10 µM and 23.9 µM
same,GI50,ACHN renal,3.05 µM and > 10 µM and 10.5 µM
same,TGI,ACHN renal,14.9 µM and > 10 µM and 22.4 µM
same,GI50,SR leukemia,7.28 µM and > 4.45 µM and 8.51 µM
same,TGI,SR leukemia,19.6 µM and 9.81 µM and 33.2 µM
same,GI50,SK-OV-3 ovarian,0.212 µM and 0.191 µM and 0.449 µM
same,TGI,SK-OV-3 ovarian,15.1 µM and > 5.49 µM and 14.9 µM
same,GI50,DU-145 prostate,13.6 µM and > 10 µM and 13.3 µM
same,TGI,DU-145 prostate,26.7 µM and > 10 µM and 26.4 µM
same,GI50,NCI/ADR-RES ovarian,11.9 µM and > 10 µM and 12.8 µM
same,TGI,NCI/ADR-RES ovarian,26.2 µM and > 10 µM and 26.9 µM
same,GI50,COLO 205 colon,0.461 µM and 0.651 µM and 1.81 µM
same,TGI,COLO 205 colon,12.4 µM and > 10 µM and 18.4 µM
same,GI50,HS 578T breast,0.171 µM and 0.184 µM and 0.28 µM
same,TGI,HS 578T breast,7.4 µM and > 2.73 µM and 4.3 µM
same,GI50,SK-MEL-5 melanoma,2.09 µM and > 10 µM and 11.1 µM
same,TGI,SK-MEL-5 melanoma,5.79 µM and > 10 µM and 23.2 µM
same,GI50,RXF 393 renal,0.0971 µM and 0.417 µM and 0.129 µM
same,TGI,RXF 393 renal,1.37 µM and 5.66 µM and 1.11 µM
same,GI50,EKVX NSCLC,3.65 µM and > 10 µM and 1.41 µM
same,TGI,EKVX NSCLC,22.8 µM and > 10 µM and 18.5 µM
same,GI50,SF-295 CNS,0.267 µM and 0.698 µM and 0.611 µM
same,TGI,SF-295 CNS,5.22 µM and > 10 µM and 13.9 µM
same,GI50,SN12C renal,6.95 µM and > 10 µM and 10.6 µM
same,TGI,SN12C renal,21.7 µM and > 10 µM and 22.7 µM
same,GI50,UO-31 renal,0.765 µM and 0.344 µM and 1.08 µM
same,TGI,UO-31 renal,18.3 µM and > 10 µM and 3.06 µM
same,GI50,M14 melanoma,4.69 µM and > 10 µM and 13.1 µM
same,TGI,M14 melanoma,9.71 µM and > 10 µM and 28.7 µM
same,GI50,HL-60(TB) leukemia,9.79 µM and > 7.36 µM and 12.3 µM
same,TGI,HL-60(TB) leukemia,27.2 µM and > 10 µM and 28.8 µM
same,GI50,LOX IMVI melanoma,4.94 µM and > 6.27 µM and 11.8 µM
same,TGI,LOX IMVI melanoma,16.5 µM and > 10 µM and 24.6 µM
same,GI50,NCI-H226 lung,12.2 µM and > 10 µM and 11.6 µM
same,TGI,NCI-H226 lung,25.9 µM and > 10 µM and 26.4 µM
same,GI50,NCI-H522 lung,7.95 µM and > 10 µM and 11.6 µM
same,TGI,NCI-H522 lung,23.2 µM and > 10 µM and 26 µM
same,GI50,IGROV1 ovarian,0.0878 µM and 0.198 µM and 0.407 µM
same,TGI,IGROV1 ovarian,13.6 µM and > 10 µM and 9.33 µM
same,GI50,HCT-116 colon,5.49 µM and > 6.86 µM and 11.3 µM
same,TGI,HCT-116 colon,19.3 µM and > 10 µM and 27.8 µM
same,GI50,A498 renal,0.0411 µM and 0.0426 µM and 0.112 µM
same,TGI,A498 renal,0.432 µM and 0.319 µM and 0.865 µM
same,GI50,SK-MEL-2 melanoma,14.9 µM and > 10 µM and 15.7 µM
same,TGI,SK-MEL-2 melanoma,30.2 µM and > 10 µM and 31.4 µM
same,GI50,OVCAR-4 ovarian,5.57 µM and > 10 µM and 14.7 µM
same,TGI,OVCAR-4 ovarian,14 µM and > 10 µM and 30.5 µM
same,GI50,OVCAR-3 ovarian,0.607 µM and 0.841 µM and 0.814 µM
same,TGI,OVCAR-3 ovarian,18.9 µM and > 10 µM and 18.5 µM
same,GI50,CCRF-CEM leukemia,0.362 µM and 0.488 µM and 0.402 µM
same,TGI,CCRF-CEM leukemia,15.6 µM and > 10 µM and 13.7 µM
same,GI50,A549 NSCLC,4.33 µM and 6.07 µM and 7.9 µM
same,TGI,A549 NSCLC,20.5 µM and > 10 µM and 23.6 µM
same,GI50,SF-539 CNS,0.197 µM and 1.71 µM and 1.63 µM
same,TGI,SF-539 CNS,5.77 µM and > 10 µM and 14 µM
same,GI50,HOP-92 NSCLC,0.035 µM and 0.113 µM and 0.163 µM
same,TGI,HOP-92 NSCLC,3.5 µM and > 2.63 µM and 5.61 µM
same,GI50,SW-620 colon,14.2 µM and > 10 µM and 15 µM
same,TGI,SW-620 colon,28.7 µM and > 10 µM and 29.8 µM

# Reference: PubChem BioAssay (NCI)
